Drawing on patent US8536164B2, “Fused pyridine compounds as casein kinase inhibitors” (Pfizer Inc., priority 2010, dated 2013), this text covers IC50 and EC50 for 14 compounds.

One test deals with CKIδ wild type (Homo sapiens, UniProt P48730). Kind of test: CK1δ kinase assay (Kinase-Glo). The test is classed as biochemical. Particulars: 10 μM ATP, 2 nM CKIδ, 85 min at 25° C.; read-out: CK1 δ IC50. As to the method:
The CK1δ kinase assay was performed in a 40 μl final volume in buffer containing 50 mM Tris, pH 7.5, 10 mM MgCl2, 1 mM dithiothreitol, 100 μg/mL BSA with 10 μM ATP, 2 nM CKIδ wild type, and 42 μM peptide substrate PLSRTLp[…] (Flotow et al., 1990) in the presence of 1 μl of CKIδ inhibitor or 4% DMSO. The reaction was incubated for 85 min at 25° C.; detection was carried out as described for the Kinase-Glo Assay (Promega). Luminescent output was measured on the Perkin Elmer Envision plate reader (PerkinElmer, Waltham, Mass.).

The target in the next test is CKI ε wild type (Homo sapiens, UniProt P49674). Kind of test: CK1ε kinase assay (Kinase-Glo). Particulars: 10 μM ATP, 2.5 nM CKI ε, 70 min at 25° C.; read-out: CK1 ε:IC50. It counts as biochemical. As to the method: The CK1ε kinase assay was performed in a 40-μl final volume in buffer containing 50 mM Tris, pH 7.5, 10 mM MgCl2, 1 mM dithiothreitol, 100 μg/mL BSA with 10 μM ATP, 2.5 nM CKI ε wild type, and 42 μM peptide substrate PLSRTLp[…] (Flotow et al., 1990) in the presence of 1 μl of CKI ε inhibitor or 4% DMSO. The reaction was incubated for 70 min at 25° C.; detection was carried out as described for the Kinase-Glo Assay (Promega). Luminescent output was measured on the Perkin Elmer Envision plate reader (PerkinElmer, Waltham, Mass.).
Sequence of CKI ε wild type (P49674 whole entry): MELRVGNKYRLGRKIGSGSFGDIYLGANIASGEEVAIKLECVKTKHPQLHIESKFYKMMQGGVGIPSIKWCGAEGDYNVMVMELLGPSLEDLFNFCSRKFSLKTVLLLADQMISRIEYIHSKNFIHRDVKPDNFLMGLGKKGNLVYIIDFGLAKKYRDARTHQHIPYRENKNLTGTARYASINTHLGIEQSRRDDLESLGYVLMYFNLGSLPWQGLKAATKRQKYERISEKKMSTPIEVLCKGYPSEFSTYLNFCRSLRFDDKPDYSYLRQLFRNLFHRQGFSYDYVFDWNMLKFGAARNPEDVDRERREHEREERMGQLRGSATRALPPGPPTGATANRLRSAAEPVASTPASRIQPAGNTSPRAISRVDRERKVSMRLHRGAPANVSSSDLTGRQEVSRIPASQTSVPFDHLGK
(Kinase-Glo reads ATP consumption through a luciferase reaction.)

Test [1] deals with T1, human CK1δ (Cos 7 cells cotransfected with mouse Per3-GFP) (Homo sapiens, UniProt P48730).
T1 construct: His tag of the vector pcDNA4/hisA (only the vector name is printed); expressed in transfected cells; host or cells: Cos 7 cells
T1 sequence (P48730 whole entry): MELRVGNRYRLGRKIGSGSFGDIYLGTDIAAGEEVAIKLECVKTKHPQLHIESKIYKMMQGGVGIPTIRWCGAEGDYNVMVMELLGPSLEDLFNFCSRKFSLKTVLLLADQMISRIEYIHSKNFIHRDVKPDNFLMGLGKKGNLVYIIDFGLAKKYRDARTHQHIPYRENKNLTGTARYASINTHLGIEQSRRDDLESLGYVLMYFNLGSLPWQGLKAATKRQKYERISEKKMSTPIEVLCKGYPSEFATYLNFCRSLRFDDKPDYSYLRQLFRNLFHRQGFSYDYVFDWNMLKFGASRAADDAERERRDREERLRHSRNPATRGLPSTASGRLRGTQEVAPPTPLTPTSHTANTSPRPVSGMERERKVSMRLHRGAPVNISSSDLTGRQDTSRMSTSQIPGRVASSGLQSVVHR
Kind of test: CK1 WCA HCS nuclear translocation assay (CK1δ). It counts as cell-based. Particulars: inhibition of mPer3-GFP translocation to the nucleus, overnight exposure, read-out: CK1 δ WCA EC50. Here is the method: (§1) CK1 WCA HCS Nuclear Translocation Assay.
(§2) Cos 7 cells were maintained at 37° C. in 5% CO2 in Dulbecco's Modified Eagle Medium (Gibco 11995) supplemented with 10% fetal bovine serum. Log-phase cells were dislodged with 5 min treatment of TrypLE Express (Gibco 12605) and viable cell count was determined with Cedex cell counter. Cells were diluted in DMEM medium to a density of 1.5e5 viable cells/mL in ⅔ of the final volume of final transfected cell mix. Cells were cotransfected with two plasmid DNAs, mouse Per3-GFP (green fluorescent protein) in pd2EGFP-N1 vector and human CKI in pcDNA4/hisA vector (for CK1Epsilon at a ratio of 1:5 respectively; for CK1δ at a ratio of 1:11 respectively), using Lipofectamine 2000 reagent (Invitrogen) according to the manufacturer's recommendations. The transfection mix contained approximately 0.83 μg/mL of DNA and 6 μL/mL of Lipofectamine 2000, in a total of ⅓ of the final transfection volume in Opti-MEM I medium (Invitrogen). After 20 min at rt, the cell mix was combined with the DNA transfection mix, per manufacturer instructions. 50 μL of the transfected cell suspension was dispensed per well by multidrop dispenser into Greiner 384-well Cellcoat (PDL) plates (Greiner #781946).
(§3) Compounds were solubilized in 100% DMSO, diluted with Opti-MEM I to a 4× concentration before addition to plated cells. After overnight exposure at 37° C. in a CO2 incubator, cells were fixed by the addition of 12% paraformaldehyde (Electron Microscopy Sciences, Hatfield, Pa.) in phosphate-buffered saline (PBS) with 20% sucrose to a final concentration of 4%, and then the cells were incubated for 30 min at rt. Fixative was removed, and cells were washed with PBS and then stained with 0.4 μg/ml Hoechst dye (Invitrogen) in blocking buffer containing 4% goat serum (Vector Labs s-1000) and 0.1% TritonX (Sigma T8787) for 1 h. Cells were washed again with PBS and stored at 4° C. in PBS or scanned immediately with the Cellomics ArrayScan VTI. CKIδ dependent nuclear localization of the GFP-tagged mPer3 protein was quantitated using the Cellomics ArrayScan VTI system utilizing the Cytoplasm to Nucleus translocation bioapplication to calculate the Nuclear-Cytoplasmic Intensity difference. Inhibitors of CK1 δ/ε were tested across a dose response curve to evaluate their ability to inhibit mPer3-GFP translocation to the nucleus. Cells with a total intensity of mPER3:GFP expression equal to or greater than 20,000 are included in analysis.

For test [2], the target named is T2, human CK1Epsilon (Cos 7 cells cotransfected with mouse Per3-GFP) (Homo sapiens, UniProt P49674).
T2 construct: His tag of the vector pcDNA4/hisA (only the vector name is printed); expressed in transfected cells; host or cells: Cos 7 cells
T2 sequence (P49674 whole entry): as the sequence (P49674 whole entry) above
Kind of test: CK1 WCA HCS nuclear translocation assay (CK1ε). Particulars: inhibition of mPer3-GFP translocation to the nucleus, overnight exposure, read-out: CK1 ε WCA EC50. The test is classed as cell-based. As to the method: as §1, §2, §3

Sequence of CKIδ wild type (P48730 whole entry): as the sequence (P48730 whole entry) above

The IC50 is the midpoint of a concentration-inhibition curve. Usually EC50 stands for the concentration giving half of the maximal effect. Turning to `CCN1Cc2nccc(-c3cn(C)nc3-c3ccc(F)cc3)c2C1=O` [Example 34, 6-ethyl-4-[3-(4-fluorophenyl)-1-methyl-1H-pyrazol-4-yl]-6,7-dihydro-5H-pyrrolo[3,4-b]pyridin-5-one], the figures for the IC50 on CKIδ wild type and on CKI ε wild type were 12.4 nM and 61.5 nM, respectively. Besides, the EC50 in test [1] came out at 99 nM; in test [2], 468 nM.
For `Cn1cc(-c2ccnc3c2C(=O)NC3)c(-c2ccc(F)cc2)n1` [Example 4, 4-[3-(4-fluorophenyl)-1-methyl-1H-pyrazol-4-yl]-6,7-dihydro-5H-pyrrolo[3,4-b]pyridin-5-one] the same measures were 13.9 nM, 72.7 nM, 122 nM and 684 nM.
For `Cn1cc(-c2ccnc3c2CN(S(C)(=O)=O)C3)c(-c2ccc(F)cc2)n1` [Example 10, 4-[3-(4-fluorophenyl)-1-methyl-1H-pyrazol-4-yl]-6-(methylsulfonyl)-6,7-dihydro-5H-pyrrolo[3,4-b]pyridine] the same measures were 3.11 nM, 10.8 nM, 13.5 nM and 62.4 nM.
Turning to `CC1COc2c(-c3cn(C)nc3-c3ccc(F)cc3)ccnc2CN1` (centres unmarked) [Example 9, 9-[3-(4-fluorophenyl)-1-methyl-1H-pyrazol-4-yl]-3-methyl-2,3,4,5-tetrahydropyrido[2,3-f][1,4]oxazepine], the EC50 in test [1] was found to be 199 nM; in test [2] it was 834 nM.
Regarding `CCS(=O)(=O)N1Cc2nccc(-c3cn(C)nc3-c3ccc(F)cc3)c2C1` [Example 11, 6-(ethylsulfonyl)-4-[3-(4-fluorophenyl)-1-methyl-1H-pyrazol-4-yl]-6,7-dihydro-5H-pyrrolo[3,4-b]pyridine], the EC50 came to 103 nM in test [1] and 668 nM in test [2].
For `Cn1cc(-c2ccnc3c2CN(C(=O)Cc2ncccn2)C3)c(-c2ccc(F)cc2)n1` [Example 20, 4-[3-(4-fluorophenyl)-1-methyl-1H-pyrazol-4-yl]-6-(pyrimidin-2-ylacetyl)-6,7-dihydro-5H-pyrrolo[3,4-b]pyridine] the same measures were 84.7 nM and 361 nM.
Take `COCC(=O)N1Cc2nccc(-c3cn(C)nc3-c3ccc(F)cc3)c2C1` [Example 17, 4-[3-(4-fluorophenyl)-1-methyl-1H-pyrazol-4-yl]-6-(methoxyacetyl)-6,7-dihydro-5H-pyrrolo[3,4-b]pyridine]: the figures for the EC50 in test [1] and in test [2] were 47.5 nM and 210 nM, respectively.
Take `CC(=O)N1Cc2nccc(-c3cn(C)nc3-c3ccc(F)cc3)c2C1` [Example 14, 6-acetyl-4-[3-(4-fluorophenyl)-1-methyl-1H-pyrazol-4-yl]-6,7-dihydro-5H-pyrrolo[3,4-b]pyridine]: the half-maximal effective concentration (EC50) in test [1] amounted to 40.2 nM; in test [2], 150 nM.
For `Cn1cc(-c2ccnc3c2CN(S(=O)(=O)C2CC2)C3)c(-c2ccc(F)cc2)n1` [Example 12, 6-(cyclopropylsulfonyl)-4-[3-(4-fluorophenyl)-1-methyl-1H-pyrazol-4-yl]-6,7-dihydro-5H-pyrrolo[3,4-b]pyridine] the same measures were 202 nM and 882 nM.
`Cn1cc(-c2ccnc3c2C(=O)OC3)c(-c2ccc(F)cc2)n1` [Example 1, 4-(3-(4-fluorophenyl)-1-methyl-1H-pyrazol-4-yl)furo[3,4-b]pyridin-5(7H)-one]: the IC50 was found to be 7.91 nM at CKIδ wild type and 26.9 nM at CKI ε wild type. For the same compound, the EC50 turned out to be 59.8 nM in test [1] and 355 nM in test [2].
For `Cn1cc(-c2ccnc3c2OCCNC3)c(-c2ccc(F)cc2)n1` [Example 7, 9-[3-(4-fluorophenyl)-1-methyl-1H-pyrazol-4-yl]-2,3,4,5-tetrahydropyrido[2,3-f][1,4]oxazepine] the same measures were 6.01 nM, 27.6 nM, 39.2 nM and 291 nM.
For `Cn1cc(-c2ccnc3c2CN(C(=O)CC2CC2)C3)c(-c2ccc(F)cc2)n1` [Example 15, 6-(cyclopropylacetyl)-4-[3-(4-fluorophenyl)-1-methyl-1H-pyrazol-4-yl]-6,7-dihydro-5H-pyrrolo[3,4-b]pyridine], the results for the EC50 in test [1] and in test [2] were 12.6 nM and 75.4 nM, respectively.
Turning to `CN1Cc2nccc(-c3cn(C)nc3-c3ccc(Cl)cc3)c2C1=O` [Example 3, 4-[3-(4-chlorophenyl)-1-methyl-1H-pyrazol-4-yl]-6-methyl-6,7-dihydro-5H-pyrrolo[3,4-b]pyridin-5-one], the EC50 in test [1] is 78.2 nM; in test [2], 343 nM.
For `CC(C)C(=O)N1Cc2nccc(-c3cn(C)nc3-c3ccc(F)cc3)c2C1` [Example 18, 4-[3-(4-fluorophenyl)-1-methyl-1H-pyrazol-4-yl]-6-isobutyryl-6,7-dihydro-5H-pyrrolo[3,4-b]pyridine] the same measures were 39.5 nM and 195 nM.
